Results from ChEMBL document CHEMBL1201862, “PubChem BioAssay data set” (2004).
Calls of active or inactive are those of the source.

What was measured:
[1] = molecular target: DNA damage-inducible transcript 3 protein (Mus musculus, UniProt P35639); type: functional, Cricetulus griseus
[2] = molecular target: T1, X-box-binding protein 1 (Homo sapiens, UniProt P17861); type: functional, Cricetulus griseus;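 further: confirmatory dose-response counter-screen serving a CHOP assay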
T1 sequence (P17861 whole entry): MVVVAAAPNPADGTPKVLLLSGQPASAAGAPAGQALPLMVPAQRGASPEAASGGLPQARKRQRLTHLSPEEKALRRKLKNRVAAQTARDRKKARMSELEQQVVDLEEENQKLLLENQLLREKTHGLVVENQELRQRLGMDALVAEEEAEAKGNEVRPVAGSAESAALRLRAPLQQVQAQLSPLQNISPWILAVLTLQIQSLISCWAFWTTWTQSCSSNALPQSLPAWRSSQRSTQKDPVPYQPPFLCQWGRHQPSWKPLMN

[3] = system: H9c2; assay: cells; type: functional, cell-based; conditions: Rattus norvegicus, H9c2, Myocardium;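 further: confirmatory concentration-response retest of ultra-high-throughput screening hits for modulation of myocardial damage; cell death induced by hydrogen peroxide oxidative stress; compound pretreatment for 60 min then peroxide exposure for 2 h; potency is for protecting the cells against peroxide damage rather than for killing them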
[4] = cytotoxicity in HEK-293T cells, dose response, cytotoxicity control for TCR NF-kB inhibitor project, luminescence, T-cell screen hits (AID 489026); type: functional, cell-based;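 further: cells exposed to compound about 14 hours before the viability readout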
[5] = system: Saccharomyces cerevisiae; assay: NALP1 inhibitor project selectivity study, Caspase-1/ASC signal blockade IC50 in S. cerevisiae (AID 488863); type: functional, organism-based
[6] = molecular target: T2, Heat shock factor protein 1 (Mus musculus, UniProt P38532); assay: inhibition of MG132-induced HSE-luciferase signal, confirmation, cell-based, NIH3T3, luminescence, dose retest (AID 2382); type: functional;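 further: NIH3T3 fibroblasts with HSF1-driven luciferase reporter stressed by proteasome inhibitor MG132; luminescence from HSF1-driven luciferase expression after 8 hours of MG132 stress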
T2 sequence (P38532 whole entry): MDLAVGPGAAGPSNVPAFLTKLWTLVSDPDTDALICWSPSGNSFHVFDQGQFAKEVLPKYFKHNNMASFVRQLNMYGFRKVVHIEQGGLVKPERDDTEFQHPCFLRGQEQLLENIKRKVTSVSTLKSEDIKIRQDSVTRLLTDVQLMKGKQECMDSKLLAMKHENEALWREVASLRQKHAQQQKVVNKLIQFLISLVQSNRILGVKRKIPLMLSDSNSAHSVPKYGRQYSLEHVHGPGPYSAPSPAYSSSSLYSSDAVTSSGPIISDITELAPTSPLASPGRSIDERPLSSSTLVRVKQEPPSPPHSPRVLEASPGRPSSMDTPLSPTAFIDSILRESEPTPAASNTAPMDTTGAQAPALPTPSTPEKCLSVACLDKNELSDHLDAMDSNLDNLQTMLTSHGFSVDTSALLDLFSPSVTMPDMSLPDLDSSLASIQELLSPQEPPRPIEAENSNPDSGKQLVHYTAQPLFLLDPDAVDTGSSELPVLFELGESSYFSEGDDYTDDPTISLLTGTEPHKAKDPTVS

[7] = molecular target: Heat shock protein HSP 90-alpha (Homo sapiens, UniProt P07900); type: functional, organism-based
[8] = Luminescence Cell-Based Dose Confirmation HTS to Identify Inhibitors of Platelet Dense Granule Release. [Related pubchem assays: 1663 (Primary HTS), 1678 (Summary of Project)]; type: functional
[9] = molecular target: Luciferin 4-monooxygenase (Photinus pyralis, UniProt P08659); assay: firefly luciferase enzyme inhibitors, dose response, biochemical, luminescence (AID 1891)
[10] = molecular target: T3, NACHT, LRR and PYD domains-containing protein 1 (Homo sapiens, UniProt Q9C000); assay: NALP1 inhibitors in yeast, dose response, luminescent (AID 488860); type: functional
T3 sequence (Q9C000 whole entry): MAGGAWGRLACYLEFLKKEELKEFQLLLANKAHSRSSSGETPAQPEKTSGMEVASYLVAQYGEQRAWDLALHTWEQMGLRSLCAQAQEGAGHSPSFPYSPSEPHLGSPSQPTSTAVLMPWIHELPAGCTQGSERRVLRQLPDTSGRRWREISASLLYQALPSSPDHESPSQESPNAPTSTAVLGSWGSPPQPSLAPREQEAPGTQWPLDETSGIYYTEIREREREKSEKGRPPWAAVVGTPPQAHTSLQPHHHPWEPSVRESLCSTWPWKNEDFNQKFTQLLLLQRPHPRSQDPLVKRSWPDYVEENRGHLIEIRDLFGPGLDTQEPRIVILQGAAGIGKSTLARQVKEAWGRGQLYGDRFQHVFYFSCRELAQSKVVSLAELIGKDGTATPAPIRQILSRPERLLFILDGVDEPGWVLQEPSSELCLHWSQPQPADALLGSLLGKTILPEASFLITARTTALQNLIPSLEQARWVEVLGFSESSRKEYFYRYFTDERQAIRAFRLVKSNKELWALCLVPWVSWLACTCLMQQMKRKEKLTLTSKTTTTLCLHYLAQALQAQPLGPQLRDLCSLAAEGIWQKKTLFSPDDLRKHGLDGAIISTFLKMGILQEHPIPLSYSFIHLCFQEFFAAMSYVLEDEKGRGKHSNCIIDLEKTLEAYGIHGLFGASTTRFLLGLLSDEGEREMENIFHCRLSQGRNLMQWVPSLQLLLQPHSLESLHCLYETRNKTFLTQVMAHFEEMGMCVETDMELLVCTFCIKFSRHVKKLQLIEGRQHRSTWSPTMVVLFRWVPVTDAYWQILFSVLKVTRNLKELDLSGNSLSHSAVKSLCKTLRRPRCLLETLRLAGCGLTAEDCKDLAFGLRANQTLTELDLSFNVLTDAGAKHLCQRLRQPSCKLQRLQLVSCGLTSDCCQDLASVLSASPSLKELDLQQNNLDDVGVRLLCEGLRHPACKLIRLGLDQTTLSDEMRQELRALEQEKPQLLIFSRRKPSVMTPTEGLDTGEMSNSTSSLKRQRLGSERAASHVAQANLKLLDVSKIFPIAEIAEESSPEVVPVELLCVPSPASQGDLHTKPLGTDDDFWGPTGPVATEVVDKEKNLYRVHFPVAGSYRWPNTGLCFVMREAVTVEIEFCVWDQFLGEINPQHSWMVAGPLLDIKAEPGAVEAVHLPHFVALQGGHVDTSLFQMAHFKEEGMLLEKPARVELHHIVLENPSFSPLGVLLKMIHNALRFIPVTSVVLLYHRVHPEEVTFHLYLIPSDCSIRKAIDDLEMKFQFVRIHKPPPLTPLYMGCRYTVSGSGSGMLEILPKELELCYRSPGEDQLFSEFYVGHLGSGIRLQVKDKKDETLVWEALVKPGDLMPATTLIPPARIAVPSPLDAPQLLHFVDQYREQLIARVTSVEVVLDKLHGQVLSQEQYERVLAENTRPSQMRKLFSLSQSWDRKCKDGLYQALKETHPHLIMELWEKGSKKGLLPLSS

[11] = molecular target: T4, Voltage-gated N-type calcium channel alpha-1B subunit/Amyloid beta A4 precursor protein-binding family A member 1 (Homo sapiens, UniProt Q00975+Q02410); type: protein assay
[12] = molecular target: T4, Voltage-gated N-type calcium channel alpha-1B subunit/Amyloid beta A4 precursor protein-binding family A member 1; type: protein assay; remark: listed apart in the source
[13] = molecular target: T5, Short transient receptor potential channel 4 (Mus musculus, UniProt Q9QUQ5); assay: TRPC4 positive allosteric modulators, dose response, cell-based, HEK293 TRPC4/mu-opioid, Fluo-4 calcium, EC20 DAMGO (AID 434941); type: functional
T5 sequence (Q9QUQ5 whole entry): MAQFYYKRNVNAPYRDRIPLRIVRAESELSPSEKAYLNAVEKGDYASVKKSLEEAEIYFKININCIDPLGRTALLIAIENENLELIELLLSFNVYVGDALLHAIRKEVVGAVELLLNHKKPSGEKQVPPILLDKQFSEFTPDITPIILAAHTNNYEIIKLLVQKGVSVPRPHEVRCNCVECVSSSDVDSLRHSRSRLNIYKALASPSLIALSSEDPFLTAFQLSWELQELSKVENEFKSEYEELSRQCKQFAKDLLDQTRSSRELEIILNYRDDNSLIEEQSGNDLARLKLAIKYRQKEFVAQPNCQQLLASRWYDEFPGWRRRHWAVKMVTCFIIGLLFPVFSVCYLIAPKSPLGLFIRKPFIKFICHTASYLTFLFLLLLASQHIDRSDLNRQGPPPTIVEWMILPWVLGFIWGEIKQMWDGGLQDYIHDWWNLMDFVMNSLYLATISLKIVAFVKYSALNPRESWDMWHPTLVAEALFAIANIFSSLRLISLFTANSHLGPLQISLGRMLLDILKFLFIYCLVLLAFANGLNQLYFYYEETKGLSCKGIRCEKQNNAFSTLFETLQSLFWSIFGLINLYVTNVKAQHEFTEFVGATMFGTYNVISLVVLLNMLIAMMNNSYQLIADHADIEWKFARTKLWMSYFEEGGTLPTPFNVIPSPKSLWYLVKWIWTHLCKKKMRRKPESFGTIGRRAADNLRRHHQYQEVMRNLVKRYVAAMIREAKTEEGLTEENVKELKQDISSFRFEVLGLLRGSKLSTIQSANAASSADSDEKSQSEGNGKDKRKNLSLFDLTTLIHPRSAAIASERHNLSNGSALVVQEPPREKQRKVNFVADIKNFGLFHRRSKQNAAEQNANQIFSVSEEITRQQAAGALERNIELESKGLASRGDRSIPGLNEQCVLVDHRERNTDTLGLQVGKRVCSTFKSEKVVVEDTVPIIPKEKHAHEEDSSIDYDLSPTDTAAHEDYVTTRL

[14] = molecular target: T6, Corticotropin-releasing factor receptor 2/Corticotropin-releasing factor-binding protein (Homo sapiens, UniProt P24387+Q13324); assay: activators of CRF receptor 2 with binding protein – uHTS hits, confirmation (AID 602473); type: functional; conditions: read-out: EC50_Mean
T6 sequence (Q13324 whole entry): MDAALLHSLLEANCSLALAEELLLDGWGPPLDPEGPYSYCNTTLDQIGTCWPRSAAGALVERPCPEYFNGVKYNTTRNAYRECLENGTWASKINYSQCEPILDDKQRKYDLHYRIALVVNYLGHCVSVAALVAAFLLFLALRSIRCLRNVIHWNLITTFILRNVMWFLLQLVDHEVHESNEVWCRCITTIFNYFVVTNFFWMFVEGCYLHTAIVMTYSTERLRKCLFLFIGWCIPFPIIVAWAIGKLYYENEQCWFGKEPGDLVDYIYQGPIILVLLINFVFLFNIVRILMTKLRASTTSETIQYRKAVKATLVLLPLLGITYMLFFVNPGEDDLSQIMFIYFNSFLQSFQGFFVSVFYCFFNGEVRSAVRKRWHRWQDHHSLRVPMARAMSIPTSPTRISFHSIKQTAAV
T6 sequence (P24387 whole entry): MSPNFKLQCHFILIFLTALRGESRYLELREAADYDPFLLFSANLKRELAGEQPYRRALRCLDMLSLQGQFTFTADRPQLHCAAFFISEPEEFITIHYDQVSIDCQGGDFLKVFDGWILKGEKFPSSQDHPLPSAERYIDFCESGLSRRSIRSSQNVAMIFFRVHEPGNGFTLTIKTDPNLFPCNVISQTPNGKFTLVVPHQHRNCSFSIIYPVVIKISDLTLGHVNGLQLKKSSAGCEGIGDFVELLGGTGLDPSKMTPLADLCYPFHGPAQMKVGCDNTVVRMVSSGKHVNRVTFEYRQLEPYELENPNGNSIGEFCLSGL

[15] = molecular target: T7, Hexokinase (Trypanosoma brucei, UniProt Q38C41); assay: Confirmation assay for inhibitors of Trypanosoma brucei hexokinase 1-Analogue-first series. [Related pubchem assays (depositor defined):AID1430, AID1632, AID2516, AID2560, AID2579, AID2600, AID449725, AID492951]; type: functional
T7 sequence (Q38C41 whole entry): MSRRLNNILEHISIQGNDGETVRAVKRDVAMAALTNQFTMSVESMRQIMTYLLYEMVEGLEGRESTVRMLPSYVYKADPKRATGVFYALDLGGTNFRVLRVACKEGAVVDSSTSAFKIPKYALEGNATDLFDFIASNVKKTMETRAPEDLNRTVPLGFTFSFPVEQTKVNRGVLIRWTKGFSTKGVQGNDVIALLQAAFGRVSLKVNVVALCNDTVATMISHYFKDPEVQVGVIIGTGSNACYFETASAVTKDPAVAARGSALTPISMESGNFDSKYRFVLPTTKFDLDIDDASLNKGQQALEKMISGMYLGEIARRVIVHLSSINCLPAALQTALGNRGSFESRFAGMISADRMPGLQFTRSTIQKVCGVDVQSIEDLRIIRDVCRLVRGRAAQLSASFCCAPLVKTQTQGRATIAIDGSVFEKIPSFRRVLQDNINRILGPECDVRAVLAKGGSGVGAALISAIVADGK

[16] = molecular target: T5, Short transient receptor potential channel 4; assay: mouse TRPC4 channel activators, dose response, cell-based, HEK293 TRPC4/mu-opioid, Fluo-4 calcium (AID 434937); type: functional

Sequence of DNA damage-inducible transcript 3 protein (P35639 whole entry): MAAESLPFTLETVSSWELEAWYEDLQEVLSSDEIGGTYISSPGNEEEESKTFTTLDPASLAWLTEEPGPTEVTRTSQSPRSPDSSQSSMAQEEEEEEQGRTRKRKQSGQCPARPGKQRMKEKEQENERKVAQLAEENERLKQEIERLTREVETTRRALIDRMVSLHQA
T4 sequence (Q00975 whole entry): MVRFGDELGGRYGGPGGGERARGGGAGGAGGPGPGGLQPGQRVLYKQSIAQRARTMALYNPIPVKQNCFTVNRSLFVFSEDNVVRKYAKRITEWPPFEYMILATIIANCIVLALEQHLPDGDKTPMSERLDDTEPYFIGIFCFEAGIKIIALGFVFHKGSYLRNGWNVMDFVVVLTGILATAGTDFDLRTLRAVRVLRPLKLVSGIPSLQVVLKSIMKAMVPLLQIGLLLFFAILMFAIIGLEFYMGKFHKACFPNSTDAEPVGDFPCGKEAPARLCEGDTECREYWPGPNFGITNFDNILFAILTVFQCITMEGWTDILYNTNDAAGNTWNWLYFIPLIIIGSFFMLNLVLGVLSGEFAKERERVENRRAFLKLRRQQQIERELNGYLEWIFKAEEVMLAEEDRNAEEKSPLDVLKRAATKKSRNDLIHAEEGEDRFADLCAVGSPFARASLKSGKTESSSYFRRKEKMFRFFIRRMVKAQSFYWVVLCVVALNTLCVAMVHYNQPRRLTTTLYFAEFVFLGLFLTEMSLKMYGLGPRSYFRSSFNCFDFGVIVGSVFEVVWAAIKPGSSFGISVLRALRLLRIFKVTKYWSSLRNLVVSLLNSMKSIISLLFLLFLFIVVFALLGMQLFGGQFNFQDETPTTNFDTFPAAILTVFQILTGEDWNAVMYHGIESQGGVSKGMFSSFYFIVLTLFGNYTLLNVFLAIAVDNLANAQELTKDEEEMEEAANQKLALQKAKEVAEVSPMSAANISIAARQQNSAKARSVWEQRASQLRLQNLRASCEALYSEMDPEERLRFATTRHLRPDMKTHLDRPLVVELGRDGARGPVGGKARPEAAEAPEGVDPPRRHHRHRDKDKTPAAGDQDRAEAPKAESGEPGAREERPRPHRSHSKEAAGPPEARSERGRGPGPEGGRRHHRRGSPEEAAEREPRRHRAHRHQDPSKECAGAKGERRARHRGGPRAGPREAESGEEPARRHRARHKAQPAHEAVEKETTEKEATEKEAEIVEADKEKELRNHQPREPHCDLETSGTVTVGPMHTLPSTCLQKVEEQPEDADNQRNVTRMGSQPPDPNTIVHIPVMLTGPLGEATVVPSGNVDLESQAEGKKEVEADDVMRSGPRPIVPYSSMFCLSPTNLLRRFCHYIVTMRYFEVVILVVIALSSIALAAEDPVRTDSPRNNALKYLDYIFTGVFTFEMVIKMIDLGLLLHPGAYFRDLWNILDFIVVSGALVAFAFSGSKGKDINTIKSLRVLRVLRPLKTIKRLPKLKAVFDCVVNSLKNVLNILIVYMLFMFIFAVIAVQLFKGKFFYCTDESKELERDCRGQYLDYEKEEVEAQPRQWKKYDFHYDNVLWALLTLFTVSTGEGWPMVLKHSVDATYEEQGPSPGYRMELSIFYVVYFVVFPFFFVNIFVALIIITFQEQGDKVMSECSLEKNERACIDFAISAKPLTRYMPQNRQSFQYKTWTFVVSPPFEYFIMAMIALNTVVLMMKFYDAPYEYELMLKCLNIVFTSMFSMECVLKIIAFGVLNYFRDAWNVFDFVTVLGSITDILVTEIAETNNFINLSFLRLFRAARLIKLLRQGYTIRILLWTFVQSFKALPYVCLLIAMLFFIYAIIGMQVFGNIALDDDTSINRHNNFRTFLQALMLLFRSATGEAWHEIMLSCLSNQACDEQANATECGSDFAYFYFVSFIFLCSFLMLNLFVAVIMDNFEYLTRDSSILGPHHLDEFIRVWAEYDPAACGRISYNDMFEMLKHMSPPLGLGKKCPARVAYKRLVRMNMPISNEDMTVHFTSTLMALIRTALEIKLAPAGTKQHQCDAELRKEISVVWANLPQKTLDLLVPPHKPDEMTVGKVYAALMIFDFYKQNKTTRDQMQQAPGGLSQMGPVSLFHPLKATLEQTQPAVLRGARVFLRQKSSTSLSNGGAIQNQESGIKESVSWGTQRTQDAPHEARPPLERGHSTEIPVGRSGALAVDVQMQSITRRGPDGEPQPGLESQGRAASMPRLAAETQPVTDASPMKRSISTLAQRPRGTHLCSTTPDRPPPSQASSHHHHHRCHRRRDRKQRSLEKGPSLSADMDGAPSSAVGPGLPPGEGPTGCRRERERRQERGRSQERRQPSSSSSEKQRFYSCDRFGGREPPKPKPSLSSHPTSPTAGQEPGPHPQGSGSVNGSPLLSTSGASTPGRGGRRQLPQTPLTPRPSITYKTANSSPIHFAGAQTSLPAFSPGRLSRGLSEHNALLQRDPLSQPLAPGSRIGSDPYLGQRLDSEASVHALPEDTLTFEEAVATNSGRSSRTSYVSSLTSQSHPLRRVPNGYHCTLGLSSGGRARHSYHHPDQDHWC
T4 sequence (Q02410 whole entry): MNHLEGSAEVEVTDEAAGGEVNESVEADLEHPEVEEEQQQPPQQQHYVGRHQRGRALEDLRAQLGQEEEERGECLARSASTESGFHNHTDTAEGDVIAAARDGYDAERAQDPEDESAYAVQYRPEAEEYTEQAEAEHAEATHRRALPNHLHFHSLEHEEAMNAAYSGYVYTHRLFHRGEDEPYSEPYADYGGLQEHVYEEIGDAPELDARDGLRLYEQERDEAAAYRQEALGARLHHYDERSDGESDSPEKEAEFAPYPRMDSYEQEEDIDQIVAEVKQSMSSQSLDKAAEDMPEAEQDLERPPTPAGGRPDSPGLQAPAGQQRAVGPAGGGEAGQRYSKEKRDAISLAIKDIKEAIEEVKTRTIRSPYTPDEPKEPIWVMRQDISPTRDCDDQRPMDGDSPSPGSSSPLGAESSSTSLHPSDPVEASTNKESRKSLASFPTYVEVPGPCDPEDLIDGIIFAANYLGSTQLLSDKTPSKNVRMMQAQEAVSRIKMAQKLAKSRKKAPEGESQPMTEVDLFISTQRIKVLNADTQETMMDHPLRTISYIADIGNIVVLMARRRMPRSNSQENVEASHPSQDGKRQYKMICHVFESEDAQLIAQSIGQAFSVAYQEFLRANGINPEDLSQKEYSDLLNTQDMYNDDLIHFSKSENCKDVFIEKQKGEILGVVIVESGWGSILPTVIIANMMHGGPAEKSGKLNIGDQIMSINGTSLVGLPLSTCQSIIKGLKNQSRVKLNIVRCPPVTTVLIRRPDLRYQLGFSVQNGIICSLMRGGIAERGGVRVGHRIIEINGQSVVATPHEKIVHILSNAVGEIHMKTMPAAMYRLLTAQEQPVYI
Sequence of Luciferin 4-monooxygenase (P08659 whole entry, the tested form may be a part): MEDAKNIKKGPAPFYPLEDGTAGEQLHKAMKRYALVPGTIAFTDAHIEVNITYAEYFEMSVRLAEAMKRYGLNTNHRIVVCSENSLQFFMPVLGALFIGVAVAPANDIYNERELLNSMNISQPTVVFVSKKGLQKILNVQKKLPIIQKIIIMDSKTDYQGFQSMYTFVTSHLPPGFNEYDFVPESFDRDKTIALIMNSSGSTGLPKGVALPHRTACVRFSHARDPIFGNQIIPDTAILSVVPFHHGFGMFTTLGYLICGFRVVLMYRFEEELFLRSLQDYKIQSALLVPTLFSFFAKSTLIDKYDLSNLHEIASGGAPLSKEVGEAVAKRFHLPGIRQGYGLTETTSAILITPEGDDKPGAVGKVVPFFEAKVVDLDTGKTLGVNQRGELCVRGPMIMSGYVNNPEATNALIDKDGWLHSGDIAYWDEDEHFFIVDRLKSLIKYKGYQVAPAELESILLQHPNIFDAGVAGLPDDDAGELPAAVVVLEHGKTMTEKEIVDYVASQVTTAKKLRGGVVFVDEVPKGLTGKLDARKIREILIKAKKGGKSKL

SMILES: CCOC(=O)Cc1csc(NC(=O)NC2(C(F)(F)F)Oc3ccc(Cl)cc3O2)n1 (stereo not given)
- Absolute IC50 (CHOP) [1]: 10 µM
- Absolute IC50 (XBP1) [2]: 10 µM
- IC50 [3]: > 79 µM (inactive)

SMILES: COC(=O)c1ccccc1NC(=O)CSc1nc(-c2ccco2)cc(C(F)(F)F)n1
- IC50 [4]: > 80 µM (inactive)

SMILES: COC(=O)/C=C\C(=O)Nc1cccc([N+](=O)[O-])c1
- IC50 [5]: 7.1 µM (active)
- EC50 [6]: > 195 µM (not active)
- AC50 [7]: 3.67 µM (active)
- EC50 [8]: 9.34 µM (active)
- Absolute IC50 (CHOP) [1]: 10 µM
- EC50 [9]: > 112 µM (not active)
- IC50 [10]: 10.9 µM (active)
- IC50 [11]: 2.1 µM (active)
- IC50 [12]: 10.1 µM (active)

SMILES: CC(C)c1c(O)nc(SCCN(C)C)nc1O
- EC50 [13]: 0.75 µM (active)

SMILES: O=C(O)CCNc1nc(-c2ccccc2)c2cc(Br)ccc2n1
- EC50 [13]: 0.13 µM (active)
- EC50 [14]: 2.38 µM (active)

SMILES: O=C(Cn1sc2ccccc2c1=O)Nc1cccc(I)c1
- IC50 [15]: > 25 µM (inactive)

SMILES: O=c1c2cc(Br)ccc2[s+]([O-])n1-c1ccccc1 (stereo not given)
- IC50 [15]: > 25 µM (inactive)

SMILES: COc1ccc(/N=C(\C)C2=C(O)C(=O)N(CCO)C2c2ccc(Br)cc2)cc1 (stereo not given)
- EC50 [13]: 0.38 µM (active)
- EC50 [16]: 5.96 µM (active)
